For orientation: pEC50 means the negative decadic logarithm of the EC50, by convention in mol/L.

Compound in this assay: Nc1ncnc2c1ncn2[C@@H]1O[C@H](COP(=O)(O)OP(=O)(O)OP(=O)(O)O)[C@@H](O)[C@H]1O [adenosine triphosphate]
Put plainly: pEC50 of ATP-induced change in protein thermal stability (2D-TPP). Put shortly: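 Crude Jurkat lysate was exposed to five concentrations, vehicle among them, for 10 min at room temperature, then heated for 3 min at 12 temperatures between 42 and 63.9 °C and treated with NP40 and benzonase for 60 min at 4 °C. Soluble protein remaining after ultracentrifugation was measured by TMT LC-MS/MS, and fold changes relative to vehicle at each temperature were median-normalised. pEC50 values come from dose-response fits made per replicate across adjacent temperature pairs, with hits called under permutation-based false discovery rate control. Three independent experiments were run.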
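Also: lysate dosed with Na-ATP at 0 0.005 0.05 0.5 and 2 mM.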

UniProt P07737, sequence (P07737 whole entry): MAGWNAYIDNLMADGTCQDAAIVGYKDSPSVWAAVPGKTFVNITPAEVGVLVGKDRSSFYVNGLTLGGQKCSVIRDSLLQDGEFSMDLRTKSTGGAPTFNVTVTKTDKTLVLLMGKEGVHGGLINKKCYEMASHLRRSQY
UniProt P54278, sequence (P54278 whole entry): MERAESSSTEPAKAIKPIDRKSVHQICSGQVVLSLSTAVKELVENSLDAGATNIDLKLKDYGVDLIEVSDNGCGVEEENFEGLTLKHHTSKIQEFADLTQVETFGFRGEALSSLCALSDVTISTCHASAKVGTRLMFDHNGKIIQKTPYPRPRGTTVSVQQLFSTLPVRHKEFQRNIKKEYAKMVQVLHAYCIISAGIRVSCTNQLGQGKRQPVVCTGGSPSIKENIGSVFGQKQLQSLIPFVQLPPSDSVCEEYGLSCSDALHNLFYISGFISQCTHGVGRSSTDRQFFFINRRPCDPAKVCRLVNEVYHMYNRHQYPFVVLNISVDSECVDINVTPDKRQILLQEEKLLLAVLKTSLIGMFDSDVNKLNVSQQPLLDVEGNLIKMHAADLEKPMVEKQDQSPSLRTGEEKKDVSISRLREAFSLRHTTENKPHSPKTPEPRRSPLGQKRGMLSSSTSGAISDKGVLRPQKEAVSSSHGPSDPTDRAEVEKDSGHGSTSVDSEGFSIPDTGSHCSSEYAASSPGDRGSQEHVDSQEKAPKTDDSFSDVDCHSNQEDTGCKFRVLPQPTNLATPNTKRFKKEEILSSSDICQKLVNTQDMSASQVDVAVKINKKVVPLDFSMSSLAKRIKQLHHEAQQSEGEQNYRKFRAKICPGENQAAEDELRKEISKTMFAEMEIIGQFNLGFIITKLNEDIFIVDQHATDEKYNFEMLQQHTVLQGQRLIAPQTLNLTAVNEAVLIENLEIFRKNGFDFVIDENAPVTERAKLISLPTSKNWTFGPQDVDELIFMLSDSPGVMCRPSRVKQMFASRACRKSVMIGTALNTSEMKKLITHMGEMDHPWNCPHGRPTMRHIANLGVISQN
UniProt Q15181, sequence (Q15181 whole entry): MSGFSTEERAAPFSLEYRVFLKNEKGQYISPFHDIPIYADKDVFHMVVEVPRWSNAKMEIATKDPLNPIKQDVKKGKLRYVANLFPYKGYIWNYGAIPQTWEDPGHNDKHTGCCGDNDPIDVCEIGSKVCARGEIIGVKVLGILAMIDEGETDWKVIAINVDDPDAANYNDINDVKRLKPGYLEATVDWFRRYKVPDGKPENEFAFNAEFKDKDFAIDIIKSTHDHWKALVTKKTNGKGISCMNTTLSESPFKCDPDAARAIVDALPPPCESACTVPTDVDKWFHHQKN
UniProt Q16342, sequence (Q16342 whole entry): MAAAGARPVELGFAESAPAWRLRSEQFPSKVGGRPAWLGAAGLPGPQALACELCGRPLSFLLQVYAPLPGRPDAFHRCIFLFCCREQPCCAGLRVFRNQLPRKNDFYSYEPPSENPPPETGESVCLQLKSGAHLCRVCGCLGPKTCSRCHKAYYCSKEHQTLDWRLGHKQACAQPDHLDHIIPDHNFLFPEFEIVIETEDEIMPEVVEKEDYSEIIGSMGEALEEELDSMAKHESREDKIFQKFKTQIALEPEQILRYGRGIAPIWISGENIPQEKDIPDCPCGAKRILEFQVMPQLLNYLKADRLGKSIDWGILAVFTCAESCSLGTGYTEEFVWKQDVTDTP
UniProt Q9ULR3, sequence (Q9ULR3 whole entry): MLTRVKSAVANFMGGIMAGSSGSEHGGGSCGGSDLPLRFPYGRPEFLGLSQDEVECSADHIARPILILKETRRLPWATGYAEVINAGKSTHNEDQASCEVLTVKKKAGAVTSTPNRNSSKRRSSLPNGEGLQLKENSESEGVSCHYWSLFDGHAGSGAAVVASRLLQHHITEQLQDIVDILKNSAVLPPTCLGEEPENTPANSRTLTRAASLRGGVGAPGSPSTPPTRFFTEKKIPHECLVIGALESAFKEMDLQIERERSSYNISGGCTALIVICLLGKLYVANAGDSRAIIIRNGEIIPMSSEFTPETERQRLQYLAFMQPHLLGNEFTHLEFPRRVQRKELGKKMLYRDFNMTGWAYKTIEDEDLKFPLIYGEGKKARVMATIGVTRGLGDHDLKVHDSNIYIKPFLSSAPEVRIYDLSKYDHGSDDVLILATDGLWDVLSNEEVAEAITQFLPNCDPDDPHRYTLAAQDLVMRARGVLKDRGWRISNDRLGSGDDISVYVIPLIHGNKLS
UniProt Q15120, sequence (Q15120 whole entry, looked up): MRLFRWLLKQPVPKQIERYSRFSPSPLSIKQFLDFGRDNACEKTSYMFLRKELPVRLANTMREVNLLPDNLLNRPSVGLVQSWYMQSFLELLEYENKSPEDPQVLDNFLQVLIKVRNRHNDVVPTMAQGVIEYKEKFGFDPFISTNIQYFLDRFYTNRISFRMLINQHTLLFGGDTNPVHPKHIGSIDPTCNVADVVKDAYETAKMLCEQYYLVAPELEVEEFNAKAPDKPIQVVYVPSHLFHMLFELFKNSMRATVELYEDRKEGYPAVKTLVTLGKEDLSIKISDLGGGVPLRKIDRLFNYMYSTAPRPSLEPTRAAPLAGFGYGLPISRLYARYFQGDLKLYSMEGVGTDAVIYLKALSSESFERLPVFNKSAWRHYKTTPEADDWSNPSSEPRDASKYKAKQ
UniProt P48426, sequence (P48426 whole entry): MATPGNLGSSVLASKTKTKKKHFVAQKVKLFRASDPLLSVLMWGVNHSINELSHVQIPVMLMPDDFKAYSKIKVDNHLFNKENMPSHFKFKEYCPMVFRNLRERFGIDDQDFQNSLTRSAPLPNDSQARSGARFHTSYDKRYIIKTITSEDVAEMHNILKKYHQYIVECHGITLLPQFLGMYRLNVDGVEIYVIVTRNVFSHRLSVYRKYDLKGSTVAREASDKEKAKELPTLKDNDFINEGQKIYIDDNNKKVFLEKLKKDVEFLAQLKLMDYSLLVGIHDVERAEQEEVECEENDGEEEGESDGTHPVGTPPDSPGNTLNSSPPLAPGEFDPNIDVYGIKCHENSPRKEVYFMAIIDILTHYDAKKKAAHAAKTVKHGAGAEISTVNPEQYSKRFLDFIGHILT
UniProt P36871, sequence (P36871 whole entry): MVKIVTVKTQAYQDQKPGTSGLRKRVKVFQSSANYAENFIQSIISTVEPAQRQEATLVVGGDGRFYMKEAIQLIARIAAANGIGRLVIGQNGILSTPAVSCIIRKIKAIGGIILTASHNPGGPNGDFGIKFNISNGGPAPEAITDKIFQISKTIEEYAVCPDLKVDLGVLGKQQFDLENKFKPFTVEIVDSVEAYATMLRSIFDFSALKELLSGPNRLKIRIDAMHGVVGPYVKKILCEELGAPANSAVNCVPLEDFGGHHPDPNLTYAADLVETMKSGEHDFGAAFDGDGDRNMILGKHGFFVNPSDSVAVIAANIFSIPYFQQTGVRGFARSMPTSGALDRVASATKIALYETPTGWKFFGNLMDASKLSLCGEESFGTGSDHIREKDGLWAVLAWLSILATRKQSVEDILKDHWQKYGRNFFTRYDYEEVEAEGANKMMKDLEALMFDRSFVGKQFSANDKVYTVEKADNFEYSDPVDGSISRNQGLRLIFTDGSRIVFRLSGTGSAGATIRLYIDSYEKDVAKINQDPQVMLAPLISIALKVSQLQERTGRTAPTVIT
UniProt Q9H8W4, sequence (Q9H8W4 whole entry): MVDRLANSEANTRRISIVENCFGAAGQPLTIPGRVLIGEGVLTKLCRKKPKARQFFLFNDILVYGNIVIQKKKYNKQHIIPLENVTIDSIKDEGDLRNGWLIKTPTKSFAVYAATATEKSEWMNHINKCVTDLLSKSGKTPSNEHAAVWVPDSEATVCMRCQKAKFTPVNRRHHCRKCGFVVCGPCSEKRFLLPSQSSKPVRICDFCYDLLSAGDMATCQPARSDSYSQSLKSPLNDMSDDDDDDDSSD
UniProt Q5JVF3, sequence (Q5JVF3 whole entry): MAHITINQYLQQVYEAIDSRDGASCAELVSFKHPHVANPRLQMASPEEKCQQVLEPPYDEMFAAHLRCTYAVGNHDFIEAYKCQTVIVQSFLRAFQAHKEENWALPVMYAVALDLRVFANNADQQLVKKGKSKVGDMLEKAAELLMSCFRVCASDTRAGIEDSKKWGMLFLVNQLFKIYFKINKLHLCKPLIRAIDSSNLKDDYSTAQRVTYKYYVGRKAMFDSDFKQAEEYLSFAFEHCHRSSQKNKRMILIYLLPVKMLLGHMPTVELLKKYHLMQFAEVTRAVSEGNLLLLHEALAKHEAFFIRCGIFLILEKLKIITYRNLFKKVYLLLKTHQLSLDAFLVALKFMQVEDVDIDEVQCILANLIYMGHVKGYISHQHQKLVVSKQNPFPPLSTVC
UniProt O00541, sequence (O00541 whole entry): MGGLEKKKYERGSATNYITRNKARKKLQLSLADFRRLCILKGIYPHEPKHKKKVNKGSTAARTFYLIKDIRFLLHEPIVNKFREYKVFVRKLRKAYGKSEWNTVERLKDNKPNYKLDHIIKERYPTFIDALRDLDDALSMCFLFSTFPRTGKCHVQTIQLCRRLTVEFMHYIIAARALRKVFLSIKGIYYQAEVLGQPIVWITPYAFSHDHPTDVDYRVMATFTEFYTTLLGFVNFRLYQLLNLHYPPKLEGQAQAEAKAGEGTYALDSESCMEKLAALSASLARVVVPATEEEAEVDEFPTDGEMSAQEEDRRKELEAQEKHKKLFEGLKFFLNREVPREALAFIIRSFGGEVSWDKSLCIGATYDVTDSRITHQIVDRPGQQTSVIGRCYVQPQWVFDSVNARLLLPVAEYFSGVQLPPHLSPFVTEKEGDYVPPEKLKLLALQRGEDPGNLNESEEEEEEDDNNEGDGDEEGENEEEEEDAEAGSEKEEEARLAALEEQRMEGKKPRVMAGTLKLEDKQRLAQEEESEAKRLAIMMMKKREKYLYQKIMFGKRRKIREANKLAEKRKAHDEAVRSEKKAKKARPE
UniProt P35080, sequence (P35080 whole entry): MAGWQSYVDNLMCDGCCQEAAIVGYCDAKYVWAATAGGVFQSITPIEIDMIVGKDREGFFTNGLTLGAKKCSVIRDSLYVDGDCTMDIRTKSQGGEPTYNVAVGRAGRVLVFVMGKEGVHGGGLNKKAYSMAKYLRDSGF

Regarding “OXA1L (effect direction: stabilized) (UniProt Q15070)”, the pEC50 is under 2.7.
Consider “PA2G4 (effect direction: destabilized) (UniProt Q9UQ80)”, for which the pEC50 came to 3.17.
As for “PABPN1 (effect direction: destabilized) (UniProt Q86U42)”, the pEC50 was 3.23.
Then “PACSIN2 (effect direction: stabilized) (UniProt Q9UNF0)”, with under 2.7; and “PAF1 (effect direction: stabilized) (UniProt Q8N7H5)”, with 3.1; and “PANK2 (effect direction: stabilized) (UniProt Q9BZ23)”, with 3.02.
Then “PAPOLA (effect direction: stabilized) (UniProt P51003)”, with 2.95; and “PAPSS1 (effect direction: stabilized) (UniProt O43252)”, with 3.65.
On to “PARN (effect direction: stabilized) (UniProt O95453)”, for which the pEC50 is under 2.7.
Then “PATL1 (effect direction: stabilized) (UniProt Q86TB9)”, with 2.83.
Under “PC (effect direction: stabilized) (UniProt P11498)” stands 3.45.
On to “PCID2 (effect direction: stabilized) (UniProt Q5JVF3)”, for which the pEC50 was 3.02.
For the target “PCNA (effect direction: stabilized) (UniProt P12004)”, the pEC50 is under 2.7.
Then “PCYT2 (effect direction: stabilized) (UniProt Q99447)”, with under 2.7; and “PDCD2 (effect direction: stabilized) (UniProt Q16342)”, with 3.06.
Take “PDCD5 (effect direction: destabilized) (UniProt O14737)”: the pEC50 amounted to 3.52.
With “PDCD6 (effect direction: destabilized) (UniProt O75340)”, the pEC50 is under 2.7.
“PDCD10 (effect direction: stabilized) (UniProt Q9BUL8)”: the pEC50 was determined as 3.17.
As for “PDCL3 (effect direction: destabilized) (UniProt Q9H2J4)”, the pEC50 stood at 4.16.
With “PDK3 (effect direction: stabilized) (UniProt Q15120)”, the pEC50 was 2.84.
Under “PEF1 (effect direction: destabilized) (UniProt Q9UBV8)” stands 2.86; under “PELO (effect direction: stabilized) (UniProt Q9BRX2)”, 3.17.
On to “PEPD (effect direction: destabilized) (UniProt P12955)”, for which the pEC50 is under 2.7.
On to “PES1 (effect direction: destabilized) (UniProt O00541)”, for which the pEC50 was found to be 3.49.
Turning to “PEX6 (effect direction: stabilized) (UniProt Q13608)”, the pEC50 is 4.03.
Regarding “PFN1 (effect direction: stabilized) (UniProt P07737)”, the pEC50 was found to be 3.57.
With “PFN2 (effect direction: stabilized) (UniProt P35080)”, the pEC50 turned out to be 3.51.
For “PGAM1 (effect direction: destabilized) (UniProt P18669)”, the pEC50 was under 2.7.
Consider “PGD (effect direction: stabilized) (UniProt P52209)”, for which the pEC50 was under 2.7.
“PGGT1B (effect direction: stabilized) (UniProt P53609)”: the pEC50 turned out to be 3.47.
Under “PGK1 (effect direction: stabilized) (UniProt P00558)” stands 3.75; under “PGM1 (effect direction: destabilized) (UniProt P36871)”, under 2.7.
As to “PGP (effect direction: destabilized) (UniProt A6NDG6)”, the pEC50 is under 2.7.
On to “PHACTR4 (effect direction: stabilized) (UniProt Q8IZ21)”, for which the negative-log EC50 (pEC50) was 4.03.
Then “PHGDH (effect direction: stabilized) (UniProt O43175)”, with under 2.7.
Take “PHKA1 (effect direction: stabilized) (UniProt P46020)”: the negative-log EC50 (pEC50) came to 2.87.
For “PHKG2 (effect direction: stabilized) (UniProt P15735)”, the pEC50 was found to be 2.96.
Consider “PI4K2A (effect direction: stabilized) (UniProt Q9BTU6)”, for which the negative-log EC50 (pEC50) came to 3.54.
For the target “PIP4K2A (effect direction: stabilized) (UniProt P48426)”, the pEC50 worked out at 2.72.
“PITRM1 (effect direction: stabilized) (UniProt Q5JRX3)”: the pEC50 was determined as 3.09.
As for “PLCG1 (effect direction: stabilized) (UniProt P19174)”, the negative logarithm of the EC50 (pEC50) stood at 2.94.
Then “PLEKHA1 (effect direction: stabilized) (UniProt Q9HB21)”, with 3.32.
Take “PLEKHF2 (effect direction: stabilized) (UniProt Q9H8W4)”: the pEC50 stood at 3.17.
On to “PLK1 (effect direction: stabilized) (UniProt P53350)”, for which the pEC50 stood at 3.69.
On to “PLS1 (effect direction: stabilized) (UniProt Q14651)”, for which the pEC50 is under 2.7.
On to “PM20D2 (effect direction: stabilized) (UniProt Q8IYS1)”, for which the pEC50 came out at 2.86.
On to “PMS2 (effect direction: stabilized) (UniProt P54278)”, for which the pEC50 turned out to be 3.21.
Under “PMVK (effect direction: stabilized) (UniProt Q15126)” stands 3.58; under “POLG2 (effect direction: destabilized) (UniProt Q9UHN1)”, 3.26.
Consider “POLR2C (effect direction: destabilized) (UniProt P19387)”, for which the pEC50 was found to be 3.72.
Take “POLR2E (effect direction: destabilized) (UniProt P19388)”: the pEC50 amounted to 3.45.
Regarding “POP1 (effect direction: destabilized) (UniProt Q99575)”, the pEC50 was under 2.7.
With “PPA1 (effect direction: destabilized) (UniProt Q15181)”, the negative-log EC50 (pEC50) is 2.85.
As to “PPA2 (effect direction: destabilized) (UniProt Q9H2U2)”, the negative-log EC50 (pEC50) is under 2.7.
Regarding “PPM1B (effect direction: destabilized) (UniProt O75688)”, the negative-log EC50 (pEC50) stood at 3.15.
With “PPM1F (effect direction: stabilized) (UniProt P49593)”, the pEC50 was under 2.7.
Regarding “PPM1G (effect direction: stabilized) (UniProt O15355)”, the pEC50 is under 2.7.
Regarding “PPM1H (effect direction: destabilized) (UniProt Q9ULR3)”, the pEC50 is under 2.7.
With “PPP1R7 (effect direction: stabilized) (UniProt Q15435)”, the pEC50 was under 2.7.
Turning to “PPP2CA (effect direction: destabilized) (UniProt P67775)”, the pEC50 was under 2.7.
Regarding “PPP2R1A (effect direction: stabilized) (UniProt P30153)”, the pEC50 is under 2.7.
For the target “PPP3CA (effect direction: destabilized) (UniProt Q08209)”, the pEC50 amounted to 3.09.

Values taken from the supplement of paper PMC6411743.
